Laboratory results reported in publication PMC5452347, “Serendipitous discovery of light-induced (In Situ) formation of an Azo-bridged dimeric sulfonated naphthol as a potent PTP1B inhibitor” (BMC Biochemistry, 2017).
Like-named read-outs stand apart in the source and are kept apart here.

Experiments:
DUSP5 PD(WT) = target: T1, DUSP5 PD(WT) (Homo sapiens, UniProt Q16690); assay: DUSP5 PD(WT) in vitro phosphatase assay with pNPP as substrate; type: biochemical
T1 construct: The DUSP5 phosphatase domain (DUSP5 PD(WT)) gene was synthesized by Blue Heron; made in house
T1 sequence (Q16690 178-319 limits assumed): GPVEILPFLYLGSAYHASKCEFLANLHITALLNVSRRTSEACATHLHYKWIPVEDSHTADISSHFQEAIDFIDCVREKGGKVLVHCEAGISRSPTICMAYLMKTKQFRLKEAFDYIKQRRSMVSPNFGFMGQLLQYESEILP
Description: The DUSP5 phosphatase domain (DUSP5 PD(WT)) gene was synthesized by Blue Heron (Bothell, WA) and the protein expressed and purified as previously described. To measure the enzymatic activity of wild type phosphatase domain of DUSP5 {DUSP5 PD(WT)} and the inhibitory capacity of selected compounds, an in vitro phosphatase assay was utilized as previously described. Briefly, assays without and with inhibitors were performed in Greiner 96-well clear bottom plates with a total assay volume of 200 μL. The assay buffer contained 100 mM Tris, 100 mM NaCl, 5 mM MgCl2 • 6H2O and 1 mM dithiothreitol (DTT) at pH 7.5. p-nitrophenyl phosphate (pNPP, Sigma Aldrich) 5 mM was used as the substrate. DUSP5 PD(WT) dephosphorylates pNPP to yield p-nitrophenolate, which absorbs at 405 nm, having an extinction coefficient of 18,000 M^-1 cm^-1. The reaction was initiated by the addition of 4 μL of a 29 μM DUPSP5 PD(WT) enzyme stock and absorbance was monitored at 25 °C over time using a Spectramax M5 microplate reader (Molecular Devices). Blanks contained only buffer and pNPP. Negative controls (without inhibitor) contained assay buffer with pNPP and DUSP5 PD(WT).
Appropriate vehicles were added to the blank and negative control wells. A minimum of three replicate wells was run for each condition and at each inhibitor concentration. The replicate wells were averaged to give a single data point. The reaction was initiated upon addition of 4 μL of a 29 μM enzyme stock which was dispensed to each of the wells except the blanks utilizing a single channel pipette. The resulting DUSP5 PD(WT) concentration in the assay buffer was 0.58 μM. The plate was returned to the plate reader, shaken, and absorbance recorded at 25 °C every thirty seconds over a ten to sixty mins time course. In selected experiments the plate was returned to the plate reader following a 10 mins recording for one or two additional 10 mins absorbance recordings.
(§1) Initial rate values obtained from the plate reader were normalized to percent activity relative to the mean negative control rates. Graphpad Prism 6 software was utilized to calculate a non-linear regression (curve fit) using a variable slope model equation, constraining the top and bottom values to 100% activity and 0% activity, respectively, using the following equation:2 vi=Bottom+Top−Bottom/1+10^logIC50−x*HillSlope where v i is the initial rate.
To investigate the mechanism of DUSP5 PD(WT) inhibition by RR601, initial velocity inhibition profiles of RR601 were obtained in a 96-well plate format by measuring DUSP5 PD(WT) initial velocities in assay buffer containing of 1, 3, 9, 27 and 81 mM pNPP and 0, 3, 10, 30 and 75 μM RR601 at each pNPP concentration. Reactions were initiated by the addition of DUSP5 PD(WT) to a final concentration of 0.6 μM in each of the wells, excluding the blank. The data were fitted to a global competitive inhibition model (Graphpad Prism) using the following equation:3 vi=VmaxS/Km1+I/Ki+S where v is the initial velocity, V max the maximum velocity, K m the Michaelis constant, [S] the concentration of pNPP, [I] the concentration of RR601 and K i the inhibition constant.

PTP1B [1] = target: T2, PTP1B (Homo sapiens, UniProt P18031); assay: PTP1B in vitro phosphatase assay with pNPP; type: biochemical
T2 construct: purchased Creative Biomart
T2 sequence (P18031 1-435): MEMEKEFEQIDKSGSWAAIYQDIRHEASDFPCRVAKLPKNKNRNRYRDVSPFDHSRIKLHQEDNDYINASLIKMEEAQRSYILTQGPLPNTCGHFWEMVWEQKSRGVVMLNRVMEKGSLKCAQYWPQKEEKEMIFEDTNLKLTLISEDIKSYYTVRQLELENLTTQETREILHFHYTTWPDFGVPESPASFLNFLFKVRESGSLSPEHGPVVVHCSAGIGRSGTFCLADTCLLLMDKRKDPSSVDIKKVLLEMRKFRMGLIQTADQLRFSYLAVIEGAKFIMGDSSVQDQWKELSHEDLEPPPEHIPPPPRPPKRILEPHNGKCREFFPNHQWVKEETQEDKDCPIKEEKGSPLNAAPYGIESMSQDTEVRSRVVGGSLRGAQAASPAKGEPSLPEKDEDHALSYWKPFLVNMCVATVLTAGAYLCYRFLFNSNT
Description: To examine the capacity of RR601 to inhibit protein-tyrosine phosphatase 1B (PTP1B), (Creative Biomart), activity, an in vitro phosphatase assay was adapted from. Assays with and without inhibitor were performed in Corning 96-well clear bottom plates having a non-binding surface, with a total assay volume of 200 μL. The assay buffer contained 100 mM Tris, 100 mM NaCl, 1 mM EDTA at pH 7.0 and 2.2 mM pNPP as the substrate. […] The reaction was initiated upon addition of 4 μL of a 5.0 μM PTP1B stock, which was dispensed to each of the wells except the blanks using a single channel pipette. The resulting PTPB1 concentration in the assay buffer was 0.1 μM. […] Assays were performed in 96-well plates in a similar manner as reported above. The assay buffer contained 50 mM HEPES (pH 7.4), 2 mM EDTA, 3 mM DTT and 100 mM NaCl. An initial experiment was performed to determine the kinetic parameters of the SHP-2 enzyme. The reaction was initiated with the addition of 4 μL of a 0.35 μM stock SHP-2 enzyme into wells containing 0, 1, 3, 9, 27 and 81 μM pNPP. The SHP-2 assay concentration was 7 nM. Absorbance was recorded every 30 s over a ten minute assay period at a temperature of 25 °C (Additional file 1: Fig. S8). Initial velocities were fit to the Michaelis-Menten equation:1 v=VmaxS/Km+S where v is the initial velocity, V max the maximum velocity, K m the Michaelis constant, and [S] the pNPP concentration. […] Assay buffer contained 7.5 mM pNPP, roughly one-half the value of the Michaelis constant determined from the study above. Reactions were initiated with the addition of 4 μL SHP-2 enzyme, resulting in a final assay enzyme concentration of 7 nM.
as §1

SHP2 = system: SHP2; design: method as in PMID 16717135; settings: read-out: IC50, SHP2 (reported); cited from earlier work
PTP1B [2] = target: T2, PTP1B; design: method as in PMID 16717135; settings: read-out: IC50, PTP1B (reported); cited from earlier work
[3] = Nephelometry (compound aggregation); type: physicochemical
Description: Nephelometry was performed to determine the relative propensity of the inhibitor compounds to aggregate in solution, based on the light scattering properties of the molecular aggregates. Compound aggregation can lead to artifact inhibitory effects, thus confounding a study of mechanism of inhibition. Compounds were tested for aggregation in a 96-well plate format, final volume 200 μL, using the phosphatase activity assay buffer at pH 7.5 without added pNPP. […] Eight wells were used for blanks and for each compound concentration. Plates were analyzed at two separate gains to determine if the signals were at saturating levels. Progesterone was used as a positive control for compound aggregation. Data were collected using a BMG […] Plus, equipped with a 635 nm laser.

GST-DUSP5 = target: T3, GST-DUSP5 (Homo sapiens, UniProt Q16690); assay: In vitro ERK dephosphorylation (pERK) western blot assay; type: biochemical; settings: full-length GST-DUSP5, pERK as substrate; global fit of three experiments
T3 construct: this assay was done with full-length protein (containing both domains), and using pERK as substrate; made in house
T3 sequence (Q16690 1-384): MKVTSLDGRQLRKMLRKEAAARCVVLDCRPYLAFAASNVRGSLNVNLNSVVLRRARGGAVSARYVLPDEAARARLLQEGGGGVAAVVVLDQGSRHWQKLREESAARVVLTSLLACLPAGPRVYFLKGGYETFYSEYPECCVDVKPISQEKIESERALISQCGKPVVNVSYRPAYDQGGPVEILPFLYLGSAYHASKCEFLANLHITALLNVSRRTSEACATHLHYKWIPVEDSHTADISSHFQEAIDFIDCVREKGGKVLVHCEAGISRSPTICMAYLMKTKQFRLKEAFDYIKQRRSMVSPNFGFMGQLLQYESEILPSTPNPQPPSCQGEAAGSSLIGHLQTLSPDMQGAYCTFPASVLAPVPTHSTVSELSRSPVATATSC

SHP-2 = target: T4, SHP-2 (Homo sapiens, UniProt Q06124); assay: SHP-2 in vitro phosphatase assay with pNPP; type: biochemical
T4 construct: purchased Creative Biomart
T4 sequence (Q06124 1-593): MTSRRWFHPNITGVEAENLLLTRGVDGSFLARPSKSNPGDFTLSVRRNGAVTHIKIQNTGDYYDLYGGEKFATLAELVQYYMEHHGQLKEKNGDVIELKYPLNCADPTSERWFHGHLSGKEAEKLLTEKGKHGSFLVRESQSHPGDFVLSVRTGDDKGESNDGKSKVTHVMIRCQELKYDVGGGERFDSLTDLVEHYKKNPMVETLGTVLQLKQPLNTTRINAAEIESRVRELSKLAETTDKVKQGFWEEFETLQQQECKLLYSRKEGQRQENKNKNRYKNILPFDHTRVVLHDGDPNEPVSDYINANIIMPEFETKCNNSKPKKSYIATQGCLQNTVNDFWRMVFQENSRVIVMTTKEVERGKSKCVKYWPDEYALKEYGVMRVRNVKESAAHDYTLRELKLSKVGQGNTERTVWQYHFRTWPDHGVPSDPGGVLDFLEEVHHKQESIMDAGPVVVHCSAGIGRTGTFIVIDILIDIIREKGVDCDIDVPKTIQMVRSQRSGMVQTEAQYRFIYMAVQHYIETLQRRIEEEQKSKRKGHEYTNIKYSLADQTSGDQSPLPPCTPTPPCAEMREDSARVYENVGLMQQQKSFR
Text: as §1

SMILES: O=S(=O)(O)c1ccc2cc(N=Nc3cc(S(=O)(=O)O)c4cccnc4c3O)ccc2c1 [NSC-87877]
- IC50, DUSP5 PD(WT) (DUSP5 PD(WT); pNPP, at 60 minutes, 0.1 to 300 μM): did not inhibit
- IC50 (DUSP5 PD(WT); pNPP, at 60 minutes, 0.1 to 300 μM, read-out: IC50, DUSP5 PD(WT)): > 3000 µM
- Inhibition of PTP1B activity, initially (PTP1B [1]; 0.1 to 300 μM, start of assay): did not initially inhibit
- IC50 (PTP1B [1]; pNPP, continuous monitoring over 60 min, read-out: IC50, PTP1B, after 50 mins of the reaction assay): 723 ± 302 µM
- IC50 (PTP1B [1]; pNPP, continuous monitoring over 60 min, read-out: IC50, PTP1B, after 60 mins of the reaction assay): 337 ± 130 µM
- IC50 (PTP1B [2]): 1.7 µM

SMILES: Nc1cccc2c(O)cc(S(=O)(=O)O)cc12 [RR535, 1-amino-5-naphthol-7-sulfonic acid]
- Compound aggregation over the concentration range tested (nephelometry) ([3]; 1 to 300 μM, stocks stored in the dark or exposed to room light for seventeen days): little or no measurable aggregation

SMILES: O=S(=O)(O)c1cc(O)c2cccc(/N=N/c3cccc4c(O)cc(S(=O)(=O)O)cc34)c2c1 [RR601]
- IC50 (DUSP5 PD(WT); MP Biomedicals and RR535 stocks exposed to light 90 days, RR601 freshly prepared, pNPP, ± SE, read-out: DUSP5 PD(WT) inhibitor IC50, assay reaction period 15 – 25 min): 36.5 ± 1.5 µM
- Vmax of DUSP5 PD(WT), Lineweaver-Burk (DUSP5 PD(WT); in the presence of 3 µM RR601): 0.54 µM/min
- Vmax of DUSP5 PD(WT), Lineweaver-Burk (DUSP5 PD(WT); in the presence of 10 µM RR601): 0.61 µM/min
- Vmax of DUSP5 PD(WT), Lineweaver-Burk (DUSP5 PD(WT); in the presence of 30 µM RR601): 0.62 µM/min
- Vmax of DUSP5 PD(WT), Lineweaver-Burk (DUSP5 PD(WT); in the presence of 75 µM RR601): 0.69 µM/min
- Mechanism of DUSP5 PD(WT) inhibition (DUSP5 PD(WT); initial velocity studies varying pNPP and RR601): competitive inhibitor
- IC50 (DUSP5 PD(WT); pNPP substrate, read-out: IC50, DUSP5 PD(WT) (summary value)): 36 µM
- IC50 (DUSP5 PD(WT); read-out: DUSP5 PD(WT) inhibitor IC50, assay reaction period 0 – 10 min, MP Biomedicals and RR535 stocks exposed to light 90 days, RR601 freshly prepared, pNPP, ± SE): 36.9 ± 3.9 µM
- IC50 (DUSP5 PD(WT); read-out: DUSP5 PD(WT) inhibitor IC50, assay reaction period 30 – 40 min, MP Biomedicals and RR535 stocks exposed to light 90 days, RR601 freshly prepared, pNPP, ± SE): 34.5 ± 1.4 µM
- IC50 (GST-DUSP5): 4.8 µM
- IC50 (PTP1B [1]; pNPP 2.2 mM, 10 min recording, ± SE, read-out: IC50, PTP1B): 2.1 ± 0.2 µM
- Selectivity for PTP1B versus DUSP5 (PTP1B [1]; ratio of IC50 values): 18 fold
- Ki (SHP-2; 1-30 mM pNPP, 0-3.0 µM RR601, ± SE, read-out: Ki, SHP-2, global competitive model fit): 0.38 ± 0.05 µM
- IC50 (SHP-2; pNPP 7.5 mM, 10 min reaction, ± SE): 1.1 ± 0.1 µM
- Mechanism of SHP-2 inhibition (SHP-2; substrate concentrations less than 30 mM): fit best to a competitive inhibition model

SMILES: CC(=O)[C@H]1CC[C@H]2[C@@H]3CCC4=CC(=O)CC[C@]4(C)[C@H]3CC[C@]12C [progesterone, reference compound]
- Concentration at which aggregation begins (nephelometry) ([3]; phosphatase assay buffer pH 7.5 without pNPP): approximately 100 μM
